Assay results: patent publication US20220326218A1, “COMPOSITION AND METHOD FOR INHIBITING BORC COMPLEX TO TREAT CANCERS WITH NF1 DEFICIENCY AND DYSREGULATED RAS SIGNALING” (THE TRUSTEES OF DARTMOUTH COLLEGE, priority 2019, published 2022)

What was measured:
erg6Δ yeast = experiment: Yeast dose response curves, control strains; format: cell-based, Saccharomyces cerevisiae; conditions: 30° C., 18 h, normalized to DMSO
Description: S. cerevisiae strains were plated at an OD600 of 0.05 in 96-well plates (Falcon) and treated with SC complete containing compound starting at 100 μM, followed by 2-fold serial dilutions to generate a 10-point range of concentrations normalized with DMSO; one row was treated with DMSO as a control. Yeast were incubated for 18 h. To process, the optical density was read using a Spectramax M2 (Molecular Devices) at a wavelength of 600 nm and normalized to DMSO. Each experiment was repeated 2-3 times with 4 technical replicates per experiment.
A high-throughput screen in Saccharomyces cerevisiae lacking a yeast homologue of NF1, IRA2 (ira2Δ) was developed and carried out to identify tool compounds that elicited synthetic lethality with NF1 loss (15). ira2Δ yeast have increased RAS-GTP, which results in increased MAPK and PKA signaling analogous to the pathways that are activated in NF1-deficient Schwann cells (17). […]
More than 5,100 structurally diverse compounds selected from and representative of a >340,000-compound library were screened. […] To determine whether Y102 was also effective in human tumor cells, the efficacy of Y102 was evaluated in two NF1-deficient human cancer cell line models of glioblastoma, U87-MG and U251-MG, and an NF1-deficient Neurofibromatosis type 1-associated MPNST cell line sNF96.2. […]

U251-MG cells = experiment: alamarBlue assay, U251-MG; format: cell-based, human; conditions: up to 3 days, 20 μM to 0.039 μM
Description: Cells were plated at 5,000 cells/well in 96-well plates and allowed to adhere overnight. […] Cells were incubated for 72 h. 3 h prior to end of incubation, alamarBlue (Invitrogen) was added to a final concentration of 5% v/v. Fluorescence was read using a Spectramax M2 at an excitation of 544 nm and an emission of 590 nm, and fluorescence was normalized to DMSO. Each experiment contains 4 technical replicates.

sNF96.2 cells = experiment: Hoechst cell death viability assay, sNF96.2; format: cell-based, human; conditions: sNF96.2 MPNST cells, up to 3 days, 100 μM to 0.039 μM, Hoechst 33258
Description: Cells were plated at 2,500 cells/well in 96-well plates and allowed to adhere overnight. Medium was removed and replaced with media containing compound starting at 100 μM, followed by 2-fold serial dilutions to generate a 10-point range of concentrations normalized with DMSO; one row was treated with DMSO as a control. Cells were incubated for the indicated timepoints. Upon collection, media was removed, cells were rinsed with PBS, and stored at −80° C. until all plates were collected. To process cells, plates were thawed with PBS, incubated with 1× saline-sodium citrate (SSC) buffer with 0.02% sodium dodecyl sulfate (SDS) for 1 hour at 37° C., followed by staining with 1 μg/mL Hoechst 33258 (Pierce). […] using a Spectramax M2 at an excitation of 355 nm and an emission of 460 nm, and absorbance was normalized to DMSO. Each experiment was repeated 2-3 times with 4 technical replicates per experiment.

p62 = experiment: Western immunoblotting of autophagy marker p62; format: cell-based, human; conditions: U87-MG, 12 h treatment +/- 12 h HCQ
Description: U87-MG cells were plated at 500,000 cells/well in 6-well plates and allowed to adhere overnight (Falcon). Medium was removed and replaced with fresh medium containing drugs or compounds for the indicated timepoints. Cells were collected after treatment by washing with PBS, harvested with trypsin plus agitation to detach cells, pelleted in a centrifuge and resuspended in PBS to wash. Cells were transferred to 1.5 mL microcentrifuge tubes, pelleted, and resuspended in RIPA lysis buffer (50 mM Tris pH 8.0, 150 mM NaCl, 1% nonidet P40, 0.5% sodium deoxycholate, and 0.05% SDS) containing 1 mM NaVO4, 1 mM NaF, 1 mM phenylmethylsulfonyl fluoride, 0.1 μg/mL antipain, 1 μM aprotinin, 100 μM benzamidine HCl, 0.1 μg/mL leupeptin, 0.1 μg/mL pepstatin, and 0.1 μg/mL soybean trypsin inhibitor. Protein was quantified using a BCA assay kit (Pierce). 50 μg of protein was prepared in 1× Laemmli sample buffer (50 mM Tris pH 6.8, 0.02% w/v bromophenol blue, 2% w/v SDS, 10% v/v glycerol, 1% v/v beta-mercaptoethanol, 12.5 mM EDTA) and separated by SDS-PAGE on a 4-15% polyacrylamide gradient gel (Bio-Rad). […]

mitochondria = experiment: MitoTracker Red CMXRos staining of the mitochondrial network; format: cell-based, human; conditions: U87-MG, 24 h; 2 μM Y102, 50 μM HCQ
Description: For MitoTracker Red CMXRos staining, 30 minutes prior to collection medium was removed and replaced with medium containing MitoTracker Red CMXRos at a final concentration of 100 nM (Molecular Probes). Following staining, cells were washed with PBS and fixed with 4% paraformaldehyde without methanol. Cells were washed with PBST, then permeabilized with 0.5% Triton X-100 in PBS. When co-staining with another marker, the staining procedure continued with the blocking step; otherwise, cells were stained with 0.33 μg/mL DAPI in PBS and mounted onto slides in ProLong Gold (Life Technologies).

Cn1cnnc1S/C=C/C(=O)c1ccc(F)cc1 [Y102]
effect on growth of control strains at concentrations inhibitory to erg6Δira2Δ yeast (erg6Δ yeast): no effect
sensitivity of NF1-deficient cell line to treatment (U251-MG cells): sensitive
sensitivity of NF1-deficient cell line to treatment (sNF96.2 cells): sensitive
p62 expression (western immunoblotting) (p62): increased
mitochondrial phenotype (perinuclear clustering) (mitochondria): perinuclear clustering of the mitochondria
